According to doi:10.1101/2021.04.08.439011v1 (biorxiv, 2021):

Legend:
Conditions in all cases: 0.1 µM; binder
ERK1 = ERK1 (Homo sapiens, UniProt P27361)
MEK3 = MEK3 (Homo sapiens, UniProt P46734)
TYRO3 = TYRO3 (Homo sapiens, UniProt Q06418)
ERBB2 = ERBB2 (Homo sapiens, UniProt P04626)
DCAMKL2 = DCAMKL2 (Homo sapiens, UniProt Q8N568)
TESK1 = TESK1 (Homo sapiens, UniProt Q15569)
FLT3(R834Q) = FLT3(R834Q) (Homo sapiens, UniProt P36888, R834Q)
EPHA3 = EPHA3 (Homo sapiens, UniProt P29320)
TAOK3 = TAOK3 (Homo sapiens, UniProt Q9H2K8)
ACVR2B = ACVR2B (Homo sapiens, UniProt Q13705)
TRKB = TRKB (Homo sapiens, UniProt Q16620)
ZAK = ZAK (Homo sapiens, UniProt Q9NYL2)
SRPK1 = SRPK1 (Homo sapiens, UniProt Q96SB4)
YANK2 = YANK2 (Homo sapiens, UniProt Q9NY57)
YES = YES (Homo sapiens, UniProt P07947)
CAMK4 = CAMK4 (Homo sapiens, UniProt Q16566)
DDR1 = DDR1 (Homo sapiens, UniProt Q08345)
ADCK4 = ADCK4 (Homo sapiens, UniProt Q96D53)
DMPK = DMPK (Homo sapiens, UniProt Q09013)
HIPK1 = HIPK1 (Homo sapiens, UniProt Q86Z02)
PIK3CA(H1047Y) = PIK3CA(H1047Y) (Homo sapiens, UniProt P42336, H1047Y)
MINK = MINK (Homo sapiens, UniProt Q8N4C8)
ASK2 = ASK2 (Homo sapiens, UniProt O95382)
EPHB6 = EPHB6 (Homo sapiens, UniProt O15197)
DRAK2 = DRAK2 (Homo sapiens, UniProt O94768)
CDC2L2 = CDC2L2 (Homo sapiens, UniProt Q9UQ88)
TNK1 = TNK1 (Homo sapiens, UniProt Q13470)
MKK7 = MKK7 (Homo sapiens, UniProt O14733)
ITK = ITK (Homo sapiens, UniProt Q08881)
TNNI3K = TNNI3K (Homo sapiens, UniProt Q59H18)
NEK2 = NEK2 (Homo sapiens, UniProt P51955)

Chain of TYRO3 (Q06418 whole entry): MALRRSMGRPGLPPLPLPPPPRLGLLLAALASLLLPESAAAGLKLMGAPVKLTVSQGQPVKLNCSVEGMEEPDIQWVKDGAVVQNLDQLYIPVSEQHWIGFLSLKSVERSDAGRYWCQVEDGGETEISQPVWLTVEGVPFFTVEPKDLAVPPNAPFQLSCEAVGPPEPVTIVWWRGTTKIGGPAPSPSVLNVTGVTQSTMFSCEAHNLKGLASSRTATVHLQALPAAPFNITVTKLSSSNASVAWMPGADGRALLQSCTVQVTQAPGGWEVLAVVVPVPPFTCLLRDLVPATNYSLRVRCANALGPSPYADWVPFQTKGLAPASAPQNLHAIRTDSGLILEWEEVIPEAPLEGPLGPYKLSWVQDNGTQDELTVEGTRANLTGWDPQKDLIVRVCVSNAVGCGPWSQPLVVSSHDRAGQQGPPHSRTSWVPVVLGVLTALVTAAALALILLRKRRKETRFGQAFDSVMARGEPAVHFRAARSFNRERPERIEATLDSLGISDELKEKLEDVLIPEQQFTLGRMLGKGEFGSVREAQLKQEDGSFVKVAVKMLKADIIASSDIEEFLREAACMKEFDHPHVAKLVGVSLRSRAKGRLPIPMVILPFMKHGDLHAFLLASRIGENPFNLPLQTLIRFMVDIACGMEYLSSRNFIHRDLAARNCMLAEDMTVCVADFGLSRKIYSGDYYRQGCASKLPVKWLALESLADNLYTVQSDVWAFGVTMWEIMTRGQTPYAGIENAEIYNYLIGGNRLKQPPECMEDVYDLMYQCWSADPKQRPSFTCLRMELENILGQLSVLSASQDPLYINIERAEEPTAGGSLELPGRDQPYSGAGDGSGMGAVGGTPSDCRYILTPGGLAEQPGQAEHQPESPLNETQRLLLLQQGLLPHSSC
Chain of ZAK (Q9NYL2 whole entry): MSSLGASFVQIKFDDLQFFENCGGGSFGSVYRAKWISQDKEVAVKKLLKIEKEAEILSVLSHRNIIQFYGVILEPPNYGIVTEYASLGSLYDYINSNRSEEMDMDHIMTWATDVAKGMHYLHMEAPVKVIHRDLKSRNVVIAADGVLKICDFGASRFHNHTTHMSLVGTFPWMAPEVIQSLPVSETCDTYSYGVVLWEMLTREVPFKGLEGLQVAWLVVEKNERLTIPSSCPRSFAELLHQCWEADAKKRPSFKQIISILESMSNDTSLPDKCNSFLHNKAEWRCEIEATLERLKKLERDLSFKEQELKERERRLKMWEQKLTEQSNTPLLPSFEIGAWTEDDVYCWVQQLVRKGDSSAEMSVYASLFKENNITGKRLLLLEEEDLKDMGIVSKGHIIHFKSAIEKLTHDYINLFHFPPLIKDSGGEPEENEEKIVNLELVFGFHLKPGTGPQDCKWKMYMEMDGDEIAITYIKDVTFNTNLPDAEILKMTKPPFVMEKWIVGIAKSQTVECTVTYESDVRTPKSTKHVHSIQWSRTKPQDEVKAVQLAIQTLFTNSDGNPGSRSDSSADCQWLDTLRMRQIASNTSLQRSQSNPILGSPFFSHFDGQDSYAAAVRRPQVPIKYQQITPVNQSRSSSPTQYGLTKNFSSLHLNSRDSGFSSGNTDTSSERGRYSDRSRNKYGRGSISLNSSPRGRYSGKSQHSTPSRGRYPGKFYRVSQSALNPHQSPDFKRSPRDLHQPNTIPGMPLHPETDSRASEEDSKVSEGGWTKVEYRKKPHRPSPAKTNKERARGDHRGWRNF
Chain of PIK3CA(H1047Y) (P42336 whole entry H1047Y): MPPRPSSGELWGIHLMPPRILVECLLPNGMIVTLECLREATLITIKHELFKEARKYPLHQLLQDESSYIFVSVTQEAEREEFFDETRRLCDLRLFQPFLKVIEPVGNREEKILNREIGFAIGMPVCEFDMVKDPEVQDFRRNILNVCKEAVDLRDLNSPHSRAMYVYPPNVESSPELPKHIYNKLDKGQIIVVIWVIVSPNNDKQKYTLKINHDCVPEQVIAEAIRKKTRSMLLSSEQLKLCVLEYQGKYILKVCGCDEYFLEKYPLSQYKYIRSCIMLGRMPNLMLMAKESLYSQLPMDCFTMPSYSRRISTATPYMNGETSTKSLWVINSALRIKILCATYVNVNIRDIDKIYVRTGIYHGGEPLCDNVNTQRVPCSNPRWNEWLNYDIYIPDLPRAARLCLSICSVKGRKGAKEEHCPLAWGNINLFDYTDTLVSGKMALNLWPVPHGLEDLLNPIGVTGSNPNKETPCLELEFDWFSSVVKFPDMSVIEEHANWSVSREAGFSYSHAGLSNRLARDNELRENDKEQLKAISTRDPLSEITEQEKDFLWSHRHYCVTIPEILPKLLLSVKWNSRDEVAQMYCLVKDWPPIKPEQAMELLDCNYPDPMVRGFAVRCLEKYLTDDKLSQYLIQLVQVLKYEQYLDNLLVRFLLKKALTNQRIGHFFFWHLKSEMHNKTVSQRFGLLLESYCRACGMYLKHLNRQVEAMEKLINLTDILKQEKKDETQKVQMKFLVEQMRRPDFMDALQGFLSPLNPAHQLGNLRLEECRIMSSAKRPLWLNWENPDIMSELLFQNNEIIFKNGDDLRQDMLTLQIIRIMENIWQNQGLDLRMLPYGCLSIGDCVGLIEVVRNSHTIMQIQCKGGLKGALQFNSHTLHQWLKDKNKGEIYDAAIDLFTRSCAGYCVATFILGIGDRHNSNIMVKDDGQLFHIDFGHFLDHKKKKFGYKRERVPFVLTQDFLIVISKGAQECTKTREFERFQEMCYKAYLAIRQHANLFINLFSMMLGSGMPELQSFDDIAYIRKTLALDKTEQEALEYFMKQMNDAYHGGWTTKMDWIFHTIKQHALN
Chain of DDR1 (Q08345 whole entry): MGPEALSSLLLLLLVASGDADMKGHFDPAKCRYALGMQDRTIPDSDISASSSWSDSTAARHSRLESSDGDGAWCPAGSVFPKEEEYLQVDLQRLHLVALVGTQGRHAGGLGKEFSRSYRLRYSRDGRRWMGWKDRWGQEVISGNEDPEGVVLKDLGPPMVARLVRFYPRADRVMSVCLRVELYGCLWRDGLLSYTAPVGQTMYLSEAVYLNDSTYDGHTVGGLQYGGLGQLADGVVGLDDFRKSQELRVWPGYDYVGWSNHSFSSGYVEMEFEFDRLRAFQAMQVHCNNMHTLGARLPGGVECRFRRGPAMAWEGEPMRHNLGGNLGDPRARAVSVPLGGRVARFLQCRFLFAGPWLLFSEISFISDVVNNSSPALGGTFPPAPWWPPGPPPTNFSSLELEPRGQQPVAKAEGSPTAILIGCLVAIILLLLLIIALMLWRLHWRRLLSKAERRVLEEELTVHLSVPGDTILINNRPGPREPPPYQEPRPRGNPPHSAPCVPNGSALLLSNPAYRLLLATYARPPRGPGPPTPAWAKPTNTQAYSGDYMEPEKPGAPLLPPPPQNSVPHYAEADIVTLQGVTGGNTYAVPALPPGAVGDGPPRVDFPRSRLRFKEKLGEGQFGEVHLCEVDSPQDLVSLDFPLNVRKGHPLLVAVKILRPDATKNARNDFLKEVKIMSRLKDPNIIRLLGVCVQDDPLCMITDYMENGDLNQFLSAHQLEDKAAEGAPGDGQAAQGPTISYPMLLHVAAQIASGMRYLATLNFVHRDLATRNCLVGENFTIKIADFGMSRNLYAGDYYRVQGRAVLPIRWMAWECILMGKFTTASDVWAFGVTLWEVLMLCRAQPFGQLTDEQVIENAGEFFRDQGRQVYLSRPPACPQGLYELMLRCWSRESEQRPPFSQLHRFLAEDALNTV
Chain of EPHB6 (O15197 whole entry): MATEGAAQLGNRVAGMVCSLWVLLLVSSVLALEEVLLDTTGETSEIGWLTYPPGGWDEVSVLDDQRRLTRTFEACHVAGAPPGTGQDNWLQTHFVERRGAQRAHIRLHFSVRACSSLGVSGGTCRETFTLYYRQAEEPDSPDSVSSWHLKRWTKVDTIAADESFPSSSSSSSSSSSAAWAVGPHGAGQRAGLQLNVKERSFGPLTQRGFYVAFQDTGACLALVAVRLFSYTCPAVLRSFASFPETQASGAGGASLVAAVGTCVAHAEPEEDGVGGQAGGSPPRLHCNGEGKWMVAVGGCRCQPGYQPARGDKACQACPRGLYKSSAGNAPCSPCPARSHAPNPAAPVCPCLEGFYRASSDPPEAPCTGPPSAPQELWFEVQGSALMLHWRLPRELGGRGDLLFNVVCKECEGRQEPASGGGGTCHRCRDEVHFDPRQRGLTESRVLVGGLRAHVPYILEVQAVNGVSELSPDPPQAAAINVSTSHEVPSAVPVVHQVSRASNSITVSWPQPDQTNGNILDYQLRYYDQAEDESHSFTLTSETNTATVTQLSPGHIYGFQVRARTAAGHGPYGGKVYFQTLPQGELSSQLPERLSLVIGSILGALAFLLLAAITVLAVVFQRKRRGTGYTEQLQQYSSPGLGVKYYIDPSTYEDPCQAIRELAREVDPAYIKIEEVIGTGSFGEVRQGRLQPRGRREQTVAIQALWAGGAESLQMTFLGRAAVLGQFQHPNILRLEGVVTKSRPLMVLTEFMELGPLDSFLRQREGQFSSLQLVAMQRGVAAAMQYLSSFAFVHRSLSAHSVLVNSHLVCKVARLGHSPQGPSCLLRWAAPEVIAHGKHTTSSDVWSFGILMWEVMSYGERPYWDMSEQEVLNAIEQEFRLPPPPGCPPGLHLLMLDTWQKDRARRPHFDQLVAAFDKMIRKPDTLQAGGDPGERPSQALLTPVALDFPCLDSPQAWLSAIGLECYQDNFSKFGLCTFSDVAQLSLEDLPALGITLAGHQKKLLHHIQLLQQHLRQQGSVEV
Chain of MEK3 (P46734 whole entry): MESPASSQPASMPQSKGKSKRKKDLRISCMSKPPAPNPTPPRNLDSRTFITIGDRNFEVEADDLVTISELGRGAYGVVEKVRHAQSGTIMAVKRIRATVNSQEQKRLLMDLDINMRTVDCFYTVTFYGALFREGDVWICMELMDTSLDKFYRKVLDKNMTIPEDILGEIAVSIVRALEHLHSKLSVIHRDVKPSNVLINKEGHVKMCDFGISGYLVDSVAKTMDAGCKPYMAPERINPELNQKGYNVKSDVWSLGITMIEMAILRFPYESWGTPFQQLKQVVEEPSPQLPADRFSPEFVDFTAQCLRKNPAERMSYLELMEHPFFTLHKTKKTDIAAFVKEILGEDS

CNc1ncc2cc(-c3ccc(-c4cccc(C)n4)cc3Cl)c(=O)n(C[C@H]3OC[C@H](N)CO3)c2n1 [compound 6, G-5555]
Percent Control (ERK1): 100% | Percent Control (MEK3): 75% | Percent Control (TYRO3): 96% | Percent Control (ERBB2): 100% | Percent Control (DCAMKL2): 100% | Percent Control (TESK1): 83% | Percent Control (FLT3(R834Q)): 96% | Percent Control (EPHA3): 99% | Percent Control (TAOK3): 100% | Percent Control (ACVR2B): 100% | Percent Control (TRKB): 100% | Percent Control (ZAK): 97% | Percent Control (SRPK1): 94% | Percent Control (YANK2): 3.5% | Percent Control (YES): 100% | Percent Control (CAMK4): 100% | Percent Control (DDR1): 100% | Percent Control (ADCK4): 99% | Percent Control (DMPK): 100% | Percent Control (HIPK1): 100% | Percent Control (PIK3CA(H1047Y)): 73% | Percent Control (MINK): 77% | Percent Control (ASK2): 100% | Percent Control (EPHB6): 61% | Percent Control (DRAK2): 66% | Percent Control (CDC2L2): 100% | Percent Control (TNK1): 100% | Percent Control (MKK7): 86% | Percent Control (ITK): 100% | Percent Control (TNNI3K): 100% | Percent Control (NEK2): 100%
